Bridge positions count the residues as written; N and C are the ends. Ends that are not written are not given here.
B1: mBD-1: murine β defensin, tested as lysates of SW 13 cells transfected with full length mBD-1 cDNA (protein)
chain: MKTHYFLLVMICFLFSQMEPGVGILTSLGRRTDQYKCLQHGGFCLRSSCPSNTKLQGTCKPDKPNCCKS

Legend:
[1] = tested on: Pseudomonas aeruginosa; assay: Antibiotic activity of extracts of 293 cells transfected with hBD-1 cDNA; type: cell-based; details: extracts of kidney cells transfected with full length hBD-1 cDNA; mock transfected did not
Experimental: (§1) Human embryonal kidney cells (293) (ATCC CRL 1573) grown in the absence of antibiotics were transfected with the pCMV mammalian reporter vector (Clontech) containing the full length hBD-1 cDNA. Transfected and control mock transfected cells were harvested at 24 to 48 hours postransfection, pelleted by centrifugation, resuspended in 10 mM phosphate buffer (pH 7.4) and lysed by brief sonication. Cell debris was removed by centrifugation and the resulting supernatant was tested for antibiotic activity. Approximately 10^3 or 10^4 bacteria were exposed to cell extracts for 2 hours in 10 mM phosphate buffer (pH 7.4) and cell viability was measured by plating several dilutions and counting colonies the following day.

[2] = tested on: Staphylococcus aureus; assay: as above; type: cell-based; details: extracts of kidney cells transfected with full length hBD-1 cDNA; mock transfected did not
Experimental: as §1

[3] = tested on: Escherichia coli; assay: as above; type: cell-based; details: extracts of kidney cells transfected with full length hBD-1 cDNA; mock transfected did not
Experimental: as §1

[4] = tested on: E. coli; assay: Colony count killing assay of synthetic hBD-1; type: cell-based, Escherichia coli; details: synthetic hBD-1, low NaCl
Experimental: (§2) Essentially, for assays involving Pseudomonas and Escherichia coli, approximately 5×10^4 bacterial cells were exposed to about 50 μg to 500 μg of synthetic hBD-1 in 10 mM phosphate buffer (pH 7.4) in a reaction volume of 100 μl. Samples were incubated at 37° C. for 20 minutes and were then diluted to 1 ml total volume with the corresponding test buffer. A volume of 100 μl of this solution and of two 10-fold serial dilutions thereof, were plated and incubated overnight at 37° C. to facilitate colony formation.

[5] = tested on: Escherichia coli; assay: Broth culture assay of synthetic hBD-1 (optical density); type: cell-based; details: 500 μg synthetic hBD-1, 1×10^4 bacterial cells in 200 μl 0.25×LB, 7 hours, background subtracted; untreated 0.127
Experimental: A broth culture assay was also used to assess the antimicrobial activity of hBD-1 directed against Escherichia coli. In this instance, 1×10^4 bacterial cells in 200 μl of 0.25×LB broth were incubated at 37DC in the presence or absence of 500 μg of synthetic hBD-1. After 7 hours, the optical density at 630 nm of the cultures was recorded as a measure of bacterial growth. After subtraction of background due to growth medium, the average optical density of the untreated cultures was 0.127 whereas those containing hBD-1 was 0.004, indicating nearly complete suppression of bacterial growth.

[6] = tested on: Pseudomonas aeruginosa; assay: Colony count killing and salt dependence assay of synthetic hBD-1; type: cell-based
Experimental: FIG. 7 is a graph depicting salt sensitivity of hBD-1 antimicrobial activity against Pseudomonas aeruginosa. Synthetic hBD-1 was incubated with 5×10^4 colony forming units of P. aeruginosa in 100 μl of 10 mM phosphate buffer (pH 7.4) and the indicated concentrations of NaCl. Reactions were then incubated at 37° C. for 20 minutes. Serial dilutions were plated and colony counts were performed the following day.
as §2
Salt dependence of antibiotic activity was measured essentially as described for α-defensins (Lehrer et al., 1983, supra; Selsted et al., 1984, supra). Briefly, approximately 5×10^4 bacterial cells were exposed to 50 μg of synthetic hBD-1 in 10 mM phosphate buffer (pH 7.4) containing varying concentrations of NaCl in a reaction volume of 100 μl. Reactions were incubated at 37° C. for 20 minutes and were then diluted to 1 ml total volume with the corresponding test buffer. […]

[7] = tested on: Pseudomonas aeruginosa (clinical isolate); assay: Diffusion and liquid broth assays of lysates of mBD-1 transfected cells; type: cell-based; details: lysates of SW 13 cells transfected with mBD-1 cDNA
Experimental: (§3) FIG. 14 is a series of graphs depicting the results of antibacterial assays on mBD-1. In FIGS. 14A, 14B and 14C there is shown the results of antibacterial liquid broth coincubation assays. E. coli (FIG. 14A), S. aureus (FIG. 14B) and P. aertiginosa (FIG. 14C) were added at a concentration of 10^3 to 10^4 cfu to 50 μl of lysates obtained from cells transfected with vector containing full length mBD-1 cDNA (empty circles) or cells transfected with the vector alone (filled circles). Each circle shown represents the results of an individual transfection experiment. In FIG. 14D there is shown the salt sensitivity of the antimicrobial activity of mBD-1. Extracts of mBD-1 transfected cells were incubated with 5×10^4 colony-forming units of E. coli D31 in 100 mM phosphate buffer (pH 7.4) and the indicated concentrations of NaCl. After incubation at 37° C. for 1 hour, serial dilutions of bacteria were plated and colonies were counted the following day.
(§4) To test the antibacterial activity of mBD-1, lysates obtained from cells transfected with mBD-1 cDNA positioned in a transfection vector were analyzed. […]
(§5) Antibacterial liquid broth assays were performed as previously described for α-defensins (Steiner et al., 1981, Nature 292:246-248). […] Cell viability was measured by plating several dilutions and counting colonies the following day. […]

[8] = tested on: Staphylococcus aureus (clinical isolate); assay: as above; type: cell-based; details: lysates of SW 13 cells transfected with mBD-1 cDNA
Experimental: as §3, §4, §5

[9] = tested on: Escherichia coli D31; assay: Diffusion and liquid broth assays of lysates of mBD-1 transfected cells, incl. salt and pH dependency; type: cell-based
Experimental: as §3
To test the antibacterial activity of mBD-1, lysates obtained from cells transfected with mBD-1 cDNA positioned in a transfection vector were analyzed. A clinical isolate of Staphylococcus aureus, Escherichia coli D31 (Steiner et al., 1981, Nature 292:246-248), and a clinical isolate of Pseudomonas aeruginosa were used as test organisms in both diffusion assays and liquid broth assays. […]
as §5
To analyze the salt dependency of the activity of mBD-1 against E. coli D31, NaCl was added to aliquots of the agarose solution to obtain final concentrations of NaCl of 50 mM, 100 mM, 200 mM and 500 mM. The exact concentration of NaCl in the solutions was measured using Na or Cl sensitive electrodes (Microelectrodes). […]

Molecule | antibiotic activity of transfected cell extracts [1] | antibiotic activity of transfected cell extracts [2] | antibiotic activity of transfected cell extracts [3] | bactericidal activity [4] | average optical density at 630 nm of cultures (bacterial growth) [5] | hBD-1 concentrations at which bacterial killing was observed ([6]; low NaCl, 10 mM phosphate buffer pH 7.4, 37° C., 20 minutes) | bactericidal activity ([6]; synthetic hBD-1, low NaCl) | antimicrobial activity of lysates [7] | antimicrobial activity of lysates [8] | antimicrobial activity of lysates ([9]; lysates of SW 13 cells transfected with mBD-1 cDNA, diffusion and liquid broth assays) | antimicrobial activity in acidic pH ([9]; lysates of mBD-1 transfected cells, acidic pH) | antimicrobial activity in high concentrations of NaCl ([9]; lysates of mBD-1 transfected cells, high NaCl)
hBD-1: human β-defensin 1; synthetic mature peptide with disulfide bridges Cys5-Cys34, Cys12-Cys27, Cys17-Cys35; also tested as extracts of cDNA-transfected cells (DHYNCVSSGGQCLYSACPIFTKIQGTCYRGKAKCCK; disulfide 12-27, 17-35, 5-34; UniProt P60022 33-68, looked up) | exhibited antibiotic activity | exhibited antibiotic activity | exhibited antibiotic activity | potent bactericidal activity | 0.004 | 60 to 500 µg/mL | potent bactericidal activity | – | – | – | – | –
B1 | – | – | – | – | – | – | – | active | active | active | substantially diminished and lost | substantially diminished and lost
